Laboratory results as given in US11136320B2, “Fused ring derivative used as FGFR4 inhibitor” (JACOBIO PHARMACEUTICALS CO., LTD., priority 2019, dated 2021).

What was measured:
[1] = test system: Hep3B; test: Pharmacodynamic in vivo, Hep3B model tumor growth inhibition; design: species or system NOD-SCID mice
Excerpt: The Hep3B cell line was purchased from ATCC; MEM cell culture medium, fetal bovine serum, and trypsin were purchased from Gibco; cell culture flasks were purchased from Greiner; and disposable Cell Counting Plate and taittinger Blue Solution Purchased from Bio-Rad. The disposable sterile syringe was purchased from Changzhou Jinlong Medical Plastic Instrument Co., Ltd, eye surgical scissors and eye surgical forceps were purchased from Shanghai Medical Instrument (Group) Co., Ltd. Surgical Instrument Factory, and 6-8 week old female NOD-SCID mice were purchased from Vitalivar.
a. One strain of Hep3B cells was taken out from the cell bank and MEM medium (MEM+10% FBS+1% PS) was used to recover the cells. The resuscitated cells were placed in a cell culture flask (the wall the flask was marked with the cell type, date, cultivator's name), and the cell culture flask was placed in a CO2 incubator (the temperature of the incubator was 37° C. and the CO2 concentration of the incubator was 5%);
b. When the cells covered about 90% of the bottom of the culture flask, passage was conducted. the cells were continued to cultivate in a CO2 incubator after passage. The above process was repeated until the number of the cell satisfied the requirements of pharmacodynamic in vivo;
c. The cultured cells were collected and counted using a BIO-Rad TC20 cell counter. According to the counting results, the cultured cells were resuspended with PBS and matrix gel (1:1) to obtain a cell suspension (density 5×10^7/ml), and the cell suspension was placed in an ice box for later use.
a. The cells were mixed well before seeding, and 0.5 ml of cell suspension was taken with a 1 ml syringe and bubbles in the cell suspension were removed. The syringe with the cell suspension was place on an ice pack for later use.
b. The NOD-SCID mice were set with the left hand, and the skin on the right back of the mice was disinfected with 75% alcohol. The inoculation was beginning after 30 seconds.
c. During inoculation, 1 mL syringe was on the right hand, and the cell suspension of Hep3B was inoculated subcutaneously into the right shoulder of the right back of the mouse at 0.1 mL/mouse. At inoculation interval, the syringe was placed on an ice pack and the mice were inoculated sequentially.
d. According to the tumor growth, the tumor was measured and the tumor size was calculated on the 12-15 days after inoculation.
Tumor volume calculation: tumor volume (mm^3)=length (mm)×width (mm)×width (mm)/2
e. When the tumors grew to an average volume of 100-150 mm^3, the mice were randomly divided into two groups according to tumor size and the weight of the mouse. […]
f. […] Tumors were measured and the mice were weighed twice a week after administration. […]

[2] = target: FGFR4 kinase (Homo sapiens (Human), UniProt P22455); test: biochemical
Chain of FGFR4 kinase (P22455 22-802): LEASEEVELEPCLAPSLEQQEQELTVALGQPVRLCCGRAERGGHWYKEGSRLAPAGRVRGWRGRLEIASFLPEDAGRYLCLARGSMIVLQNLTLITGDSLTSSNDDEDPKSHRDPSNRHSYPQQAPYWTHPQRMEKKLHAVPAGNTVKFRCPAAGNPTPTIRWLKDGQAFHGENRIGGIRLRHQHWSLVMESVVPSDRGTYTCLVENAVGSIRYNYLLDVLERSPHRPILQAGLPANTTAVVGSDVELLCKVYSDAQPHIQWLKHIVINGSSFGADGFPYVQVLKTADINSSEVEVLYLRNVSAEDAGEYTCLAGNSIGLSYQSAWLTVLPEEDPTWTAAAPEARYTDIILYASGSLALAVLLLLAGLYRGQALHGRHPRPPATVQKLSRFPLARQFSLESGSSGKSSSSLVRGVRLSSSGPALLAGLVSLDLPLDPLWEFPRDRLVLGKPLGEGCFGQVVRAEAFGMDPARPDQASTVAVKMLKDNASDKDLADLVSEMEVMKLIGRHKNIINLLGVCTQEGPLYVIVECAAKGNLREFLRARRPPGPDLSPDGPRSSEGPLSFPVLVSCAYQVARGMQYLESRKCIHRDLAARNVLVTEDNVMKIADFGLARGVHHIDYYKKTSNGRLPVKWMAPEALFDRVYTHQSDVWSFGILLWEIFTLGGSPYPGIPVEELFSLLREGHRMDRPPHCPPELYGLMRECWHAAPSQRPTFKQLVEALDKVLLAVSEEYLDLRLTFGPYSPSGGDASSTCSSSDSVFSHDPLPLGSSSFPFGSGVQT

**Q.** CSC[C@@H](C)Nc1cc(NC(=O)N2CCCc3cc(CN4CCN(C)CC4=O)c(C=O)nc32)ncc1C#N [Compound 4, (R)—N-(5-Cyano-4-((1-(methylthio)propan-2-yl)amino)pyridin-2-yl)-7-formyl-6-((4-methyl-2-oxopiperazin-1-yl)methyl)-3,4-dihydro-1,8-naphthyridine-1 (2H)-carboxamide] was tested. Which antitumor effect [1] did it give?
**A.** excellent antitumor effect

**Q.** What about the “effect of 15 mg/kg BID compared with 60 mg/kg QD of the reference compound” value [1] of the same compound?
**A.** equivalent

**Q.** What about the TGI % ([1]; 15 mg/kg BID, gavage) of the same compound?
**A.** 96.7%

**Q.** And the IC50 [2]?
**A.** 1.4 nM
